Experimental data published in US11332455B2, “α,β-unsaturated amide compound” (KYOWA KIRIN CO., LTD., priority 2015, dated 2022).

Tests used:
[1] = tested on: NCI-H226 cells, a human mesothelioma cell line; experiment: Cell growth inhibitory effect, cell counting kit 8, 6 days; type: cell-based; details: 144 h, 6 days incubation
Source text: (§1) Cell growth inhibitory effect on human mesothelioma, human liver cancer, human ovarian cancer, and […]
(§2) NCI-H226 cells, a human mesothelioma cell line (ATCC, CRL-5826), NCI-H322 cells, a human lung cancer cell line (the European Collection of Authenticated Cell Cultures, 95111734), OVTOKO cells, a human ovarian cancer cell line (JCRB cell bank, JCRB1048) and HuH28, a human liver cancer cell line (JCRB cell bank, JCRB0426) were each subcultured by keeping the cell density under 80% in a RPMI1640 culture medium with 10% fetal bovine serum (FBS). NCI-H226 cells, NCI-H322 cells and SSP-25 cells were each suspended in the RPM11640 culture medium mentioned above, and plated to a 96-well flat-bottom plate at 500 cells/well in each well, and incubated at 37° C. in an incubator with 5% CO2 for one day. After the incubation, the evaluation of cell growth inhibitory activity was started. OVTOKO cells were suspended in the RPMI1640 culture medium mentioned above, and plated to a 96-well flat-bottom plate at 250 cells/well in each well, and incubated it at 37° C. in an incubator with 5% CO2 for one day. After the incubation, the evaluation of the cell growth inhibitory activity was started. The next day, a test compound was serially diluted to 5 times of its final concentration in the RPM11640 culture medium mentioned above, and the diluted solution was added to each well. In this case, the final concentration of DMSO in each well was adjusted to 0.1%. After the test compound was added, cells were incubated at 37° C. in an incubator with 5% CO2 for 6 days. At the addition of the test compound and 6 days after the addition, the cell counting measurement was performed using a cell counting kit 8 (made by DOJINDO) according to a protocol equivalent to DOJINDO's recommendation. A reagent contained in the kit was added to each plate and color reaction was performed for 2 or 3 hours at 37° C. in an incubator with 5% CO2. After the reaction, an absorbance at wavelength of 450 nm was measured using a microplate reader. A growth inhibition rate was calculated according to the following formula, from which the concentration of a test compound at which cell growth was inhibited by 50% (GI50 value) was determined.

[2] = tested on: NCI-H322 cells, a human lung cancer cell line; experiment: as above; type: cell-based; details: 144 h, 6 days incubation
Source text: as §1, §2

[3] = group 100 nmol/L to 1 μmol/L (upper bound given in μmol/L)

| Compound | GI50 ([1]; group less than 100 nmol/L) | GI50 [2] | GI50 [1, 3] |
| --- | --- | --- | --- |
| C=CC(=O)NC1COc2c(cccc2Oc2ccc(C(F)(F)F)nc2)C1 (racemic) [Compound 51, N-(8-[{6-(Trifluoromethyl)pyridin-3-yl}oxy]chroman-3-yl)acrylamide] | < 100 nM | < 1000 nM | – |
| C=CC(=O)N[C@@H]1c2ccc(Oc3ccc(C(F)(F)F)cc3)cc2OC[C@@H]1F (relative stereo) [Compound 21, cis-N-[3-Fluoro-7-{4-(trifluoromethyl)phenoxy}chroman-4-yl]acrylamide] | < 100 nM | < 1000 nM | – |
| C=CC(=O)N[C@H]1CC[C@@H](Oc2ccc(Cl)cc2)c2nc(Cl)ccc21 (relative stereo) [Compound 70, cis-N-{2-Chloro-8-(4-chlorophenoxy)-5,6,7,8-tetrahydroquinolin-5-yl}acrylamide] | < 100 nM | < 1000 nM | – |
| C=CC(=O)N[C@H]1CC[C@@H](Oc2ccc(Cl)cc2)c2nc(OC)ccc21 (relative stereo) [Compound 71, cis-N-{8-(4-Chlorophenoxy)-2-methoxy-5,6,7,8-tetrahydroquinolin-5-yl}acrylamide] | < 100 nM | < 1000 nM | – |
| C=CC(=O)N[C@H]1CC[C@@H](Oc2ccc(C(F)(F)F)cc2)c2nc(Cl)ccc21 (relative stereo) [Compound 76, cis-N-[2-Chloro-8-{4-(trifluoromethyl)phenoxy}-5,6,7,8-tetrahydroquinolin-5-yl]acrylamide] | < 100 nM | < 1000 nM | – |
| C=CC(=O)N[C@H]1CC[C@H](Oc2ccc(C(F)(F)F)cc2)c2nc(Cl)ccc21 (relative stereo) [Compound 82, trans-N-[2-Chloro-8-{4-(trifluoromethyl)phenoxy}-5,6,7,8-tetrahydroquinolin-5-yl]acrylamide] | < 100 nM | < 1000 nM | – |
| C=CC(=O)N[C@H]1CC[C@@H](Oc2ccc(C(F)(F)F)cc2)c2nc(C)ccc21 (relative stereo) [Compound 184, cis-N-[2-Methyl-8-{4-(trifluoromethyl)phenoxy}-5,6,7,8-tetrahydroquinolin-5-yl]acrylamide] | < 100 nM | < 1000 nM | – |
| C=CC(=O)NC1CCOc2c1ccc(Oc1ccc(Cl)cc1)c2C (stereo not drawn) [Compound 27, N-{7-(4-Chlorophenoxy)-8-methylchroman-4-yl}acrylamide] | < 100 nM | < 1000 nM | – |
| C=CC(=O)NC1CCOc2c1ccc(Oc1ccc(Cl)cc1)c2OC (stereo not drawn) [Compound 32, N-{7-(4-Chlorophenoxy)-8-methoxychroman-4-yl}acrylamide] | < 100 nM | < 1000 nM | – |
| C=CC(=O)NC1COc2cccc(Oc3ccc(C(F)(F)F)cc3)c2C1 (stereo not drawn) [Compound 35, N-[5-{4-(Trifluoromethyl)phenoxy}chroman-3-yl]acrylamide] | < 100 nM | < 1000 nM | – |
| C=CC(=O)NC1COc2cc(Oc3ccc(Cl)cc3)ccc2C1 (stereo not drawn) [Compound 37, N-{7-(4-Chlorophenoxy)chroman-3-yl}acrylamide] | – | < 1000 nM | – |
| C=CC(=O)NC1COc2c(Oc3ccc(Cl)cc3)ccc(C)c2C1 (stereo not drawn) [Compound 41, N-{8-(4-Chlorophenoxy)-5-methylchroman-3-yl}acrylamide] | < 100 nM | < 1000 nM | – |
| C=CC(=O)NC1COc2c(cccc2Oc2ccc(Cl)cc2)C1 (stereo not drawn) [Compound 59, N-{8-(4-chlorophenoxy)chroman-3-yl}acrylamide] | < 100 nM | < 1000 nM | – |
| C=CC(=O)NC1COc2c(cccc2Oc2ccc(C(F)(F)F)cc2)C1 (stereo not drawn) [Compound 61, N-[8-{4-(Trifluoromethyl)phenoxy}chroman-3-yl]acrylamide] | – | < 1000 nM | – |
| C=CC(=O)NC1COc2c(cccc2Oc2ccc(C(F)(F)F)cn2)C1 (stereo not drawn) [Compound 64, N-(8-[{5-(Trifluoromethyl)pyridin-2-yl}oxy]chroman-3-yl)acrylamide] | – | < 1000 nM | – |
| C=CC(=O)Nc1cncc(Oc2ccc(C(F)(F)F)c(F)c2)c1 [Compound 106, N-[5-{3-Fluoro-4-(trifluoromethyl)phenoxy}pyridin-3-yl]acrylamide] | – | < 1000 nM | 100 to 1000 nM |

| Compound | GI50 ([1]; group less than 100 nmol/L) | GI50 [2] | GI50 [1, 3] |
| --- | --- | --- | --- |
| C=CC(=O)Nc1cncc(Oc2ccc(C(F)(F)F)cn2)c1 [Compound 109, N-(5-[{5-(Trifluoromethyl)pyridin-2-yl}oxy]pyridin-3-yl)acrylamide] | < 100 nM | < 1000 nM | – |
| C=CC(=O)NCc1ccc(Oc2ccc(C3CC3)cc2)c2ncccc12 [Compound 136, N-[{8-(4-Cyclopropylphenoxy)quinolin-5-yl}methyl]acrylamide] | – | – | 100 to 1000 nM |
| C=CC(=O)NCc1ccc(Oc2ccc(Cl)nc2)c2ncccc12 [Compound 142, N-([8-{(6-Chloropyridin-3-yl)oxy}quinolin-5-yl]methyl)acrylamide] | – | – | 100 to 1000 nM |
| C=CC(=O)NCc1cc(Oc2ccc(Cl)cc2)nc2ccccc12 [Compound 144, N-[{2-(4-Chlorophenoxy)quinolin-4-yl}methyl]acrylamide] | – | – | 100 to 1000 nM |
| C=CC(=O)NCc1cc(Oc2ccc(C(F)(F)F)cc2)nc2ccccc12 [Compound 146, N-([2-{4-(Trifluoromethyl)phenoxy}quinolin-4-yl]methyl)acrylamide] | – | – | 100 to 1000 nM |
| O=C(/C=C/C(F)(F)F)NCc1cc(Oc2ccc(C(F)(F)F)cc2)nc2ccccc12 [Compound 147, (E)-4,4,4-Trifluoro-N-([2-{4-(trifluoromethyl)phenoxy}quinolin-4-yl]methyl)-2-butenamide] | – | – | 100 to 1000 nM |
| C=CC(=O)NC1COc2c(cccc2Oc2ccc(C(F)(F)F)nn2)C1 (stereo not drawn) [Compound 156, N-(8-[{6-(trifluoromethyl)pyridazin-3-yl}oxy]chroman-3-yl)acrylamide] | – | – | 100 to 1000 nM |
| C=CC(=O)NC1CCOc2c1ccc(OCc1ccccc1)c2F (stereo not drawn) [Compound 166, N-{7-(Benzyloxy)-8-fluorochroman-4-yl}acrylamide] | – | – | 100 to 1000 nM |
| C=CC(=O)NC1CCOc2c1ccc(Oc1ccc(F)cc1)c2F (stereo not drawn) [Compound 167, N-{8-Fluoro-7-(4-fluorophenoxy)chroman-4-yl}acrylamide] | < 100 nM | – | – |
| C=CC(=O)NC1CCOc2c1ccc(Oc1ccc(C(F)(F)F)nc1)c2OCC (stereo not drawn) [Compound 172, N-(8-Ethoxy-7-[{6-(trifluoromethyl)pyridin-3-yl}oxy]chroman-4-yl)acrylamide] | – | – | 100 to 1000 nM |
| C=CC(=O)NCc1cc(Oc2ccc(C(F)(F)F)cc2)cc2cccnc12 [Compound 221, N-([6-{4-(Trifluoromethyl)phenoxy}quinolin-8-yl]methyl)acrylamide] | – | – | 100 to 1000 nM |
| C=CC(=O)NC1CCC(Oc2ccc(C(F)(F)F)cc2)c2cnccc21 (stereo not drawn) [Compound 228, N-[8-{4-(Trifluoromethyl)phenoxy}-5,6,7,8-tetrahydroisoquinolin-5-yl]acrylamide] | – | < 1000 nM | – |
| C=CC(=O)NC1COc2c(cc(Br)cc2Oc2ccc(C(F)(F)F)nc2)C1 (stereo not drawn) [Compound 231, N-(6-Bromo-8-[{6-(trifluoromethyl)pyridin-3-yl}oxy]chroman-3-yl)acrylamide] | < 100 nM | – | – |
| C=CC(=O)NC1CCOc2c1ccc(Oc1ccc(C(F)(F)F)cc1)c2OC (stereo not drawn) [Compound 237, N-[8-Methoxy-7-{4-(trifluoromethyl)phenoxy}chroman-4-yl]acrylamide] | < 100 nM | – | – |
| C=CC(=O)NC1CCOc2c1ccc(Oc1ccc(C(F)(F)F)cc1)c2F (stereo not drawn) [Compound 239, N-[8-Fluoro-7-{4-(trifluoromethyl)phenoxy}chroman-4-yl]acrylamide] | < 100 nM | – | – |
